Laboratory results reported in patent EP0049968A1, “Pharmaceutical compositions” (priority 1980, dated 1982).
Like-named read-outs stand apart in the source and are kept apart here.

Key:
Assay type in all cases: cell-based
Klebsiella aerogenes A = assay: MIC of compound (i) alone and in the presence of compound (iv), serial dilution in nutrient agar
Method: (§1) Activities of the compound (i) against a number of pathogenic organisms alone, and in the presence of 1.0, 2.5, 5.0 and 10 µg/ml of compound (iv).

Serratia marcescens US39 = assay: as above
Method: as §1

E. coli = assay: as above
Method: as §1

[1] = system: Pseudomonas aeruginosa Dalgleish; assay: as above
Method: as §1

Proteus mirabilis C889 = assay: as above
Method: as §1

[2] = system: Staphylococcus aureus Russell; assay: as above
Method: as §1

[3] = system: highly resistant E.coli strains (producing a plasmid mediated β-lactamase); assay: MIC of compound (i) alone and in combination with compound (iii), E. coli strains; conditions: for MIC: Escherichia coli, compound (i) alone

For `CC1(C)S[C@@H]2[C@H](NC(=O)[C@H](NC(=O)Nc3cnc(Nc4ccc(S(N)(=O)=O)cc4)nc3O)c3ccc(O)cc3)C(=O)N2[C@H]1C(=O)O` [compound (i)], the “MIC (μg/ml) for compound (i)” value (Klebsiella aerogenes A; compound (iv) 0 μg/ml (alone)) was 5.0 µg/mL, the “MIC (μg/ml) for compound (i)” value (Klebsiella aerogenes A; compound (iv) 1.0 μg/ml) was 0.05 µg/mL and the “MIC (μg/ml) for compound (i)” value (Klebsiella aerogenes A; compound (iv) 2.5 μg/ml) was 0.05 µg/mL. For the same compound, the “MIC (μg/ml) for compound (i)” value (Klebsiella aerogenes A; compound (iv) 5.0 μg/ml) was 0.05 µg/mL, the “MIC (μg/ml) for compound (i)” value (Klebsiella aerogenes A; compound (iv) 10 μg/ml) was 0.05 µg/mL and the “MIC (μg/ml) for compound (i)” value (Serratia marcescens US39; compound (iv) 0 μg/ml (alone)) was 50 µg/mL. For the same compound, the “MIC (μg/ml) for compound (i)” value (Serratia marcescens US39; compound (iv) 1.0 μg/ml) was 0.5 µg/mL, the “MIC (μg/ml) for compound (i)” value (Serratia marcescens US39; compound (iv) 2.5 μg/ml) was 1.0 µg/mL and the “MIC (μg/ml) for compound (i)” value (Serratia marcescens US39; compound (iv) 5.0 μg/ml) was 2.5 µg/mL. The “MIC (μg/ml) for compound (i)” value (Serratia marcescens US39; compound (iv) 10 μg/ml) was 5.0 µg/mL, the “MIC (μg/ml) for compound (i)” value (E. coli; E. coli JT4 R+, compound (iv) 0 μg/ml (alone)) was over 100 µg/mL and the “MIC (μg/ml) for compound (i)” value (E. coli; E. coli JT4 R+, compound (iv) 1.0 μg/ml) was 10 µg/mL. The “MIC (μg/ml) for compound (i)” value (E. coli; E. coli JT4 R+, compound (iv) 2.5 μg/ml) was 2.5 µg/mL, the “MIC (μg/ml) for compound (i)” value (E. coli; E. coli JT4 R+, compound (iv) 5.0 μg/ml) was 1.0 µg/mL and the “MIC (μg/ml) for compound (i)” value (E. coli; E. coli JT4 R+, compound (iv) 10 μg/ml) was 0.5 µg/mL. The “MIC (μg/ml) for compound (i)” value (E. coli; E. coli JT39 R+, compound (iv) 0 μg/ml (alone)) was over 100 µg/mL, the “MIC (μg/ml) for compound (i)” value (E. coli; E. coli JT39 R+, compound (iv) 1.0 μg/ml) was 1.0 µg/mL and the “MIC (μg/ml) for compound (i)” value (E. coli; E. coli JT39 R+, compound (iv) 2.5 μg/ml) was 0.5 µg/mL. For the same compound, the “MIC (μg/ml) for compound (i)” value (E. coli; E. coli JT39 R+, compound (iv) 5.0 μg/ml) was 0.5 µg/mL, the “MIC (μg/ml) for compound (i)” value (E. coli; E. coli JT39 R+, compound (iv) 10 μg/ml) was 0.1 µg/mL and the “MIC (μg/ml) for compound (i)” value ([1]; inoculum 10^-2, compound (iv) 0 μg/ml (alone)) was 50 µg/mL. The “MIC (μg/ml) for compound (i)” value ([1]; inoculum 10^-2, compound (iv) 1.0 μg/ml) was 2.5 µg/mL, the “MIC (μg/ml) for compound (i)” value ([1]; inoculum 10^-2, compound (iv) 2.5 μg/ml) was 1.0 µg/mL and the “MIC (μg/ml) for compound (i)” value ([1]; inoculum 10^-2, compound (iv) 5.0 μg/ml) was 1.0 µg/mL. For the same compound, the “MIC (μg/ml) for compound (i)” value ([1]; inoculum 10^-2, compound (iv) 10 μg/ml) was 2.5 µg/mL, the “MIC (μg/ml) for compound (i)” value ([1]; inoculum Undiluted, compound (iv) 0 μg/ml (alone)) was over 100 µg/mL and the “MIC (μg/ml) for compound (i)” value ([1]; inoculum Undiluted, compound (iv) 1.0 μg/ml) was 10 µg/mL. For the same compound, the “MIC (μg/ml) for compound (i)” value ([1]; inoculum Undiluted, compound (iv) 2.5 μg/ml) was 5.0 µg/mL, the “MIC (μg/ml) for compound (i)” value ([1]; inoculum Undiluted, compound (iv) 5.0 μg/ml) was 5.0 µg/mL and the “MIC (μg/ml) for compound (i)” value ([1]; inoculum Undiluted, compound (iv) 10 μg/ml) was 10 µg/mL. The “MIC (μg/ml) for compound (i)” value (Proteus mirabilis C889; compound (iv) 0 μg/ml (alone)) was over 100 µg/mL, the “MIC (μg/ml) for compound (i)” value (Proteus mirabilis C889; compound (iv) 1.0 μg/ml) was 0.5 µg/mL and the “MIC (μg/ml) for compound (i)” value (Proteus mirabilis C889; compound (iv) 2.5 μg/ml) was 0.2 µg/mL. For the same compound, the “MIC (μg/ml) for compound (i)” value (Proteus mirabilis C889; compound (iv) 5.0 μg/ml) was 0.1 µg/mL, the “MIC (μg/ml) for compound (i)” value (Proteus mirabilis C889; compound (iv) 10 μg/ml) was 0.1 µg/mL and the “MIC (μg/ml) for compound (i)” value ([2]; compound (iv) 0 μg/ml (alone)) was 50 µg/mL. The “MIC (μg/ml) for compound (i)” value ([2]; compound (iv) 1.0 μg/ml) was 2.5 µg/mL, the “MIC (μg/ml) for compound (i)” value ([2]; compound (iv) 2.5 μg/ml) was 2.5 µg/mL and the “MIC (μg/ml) for compound (i)” value ([2]; compound (iv) 5.0 μg/ml) was 1.0 µg/mL. For the same compound, the “MIC (μg/ml) for compound (i)” value ([2]; compound (iv) 10 μg/ml) was 1.0 µg/mL, the MIC ([3]; read-out: MIC µg/ml compound (i) alone, Geometric mean (± 95% confidence limits), geometric mean of 11 E. coli strains) was over 160 µg/mL and the MIC ([3]; read-out: MIC µg/ml compound (i) alone, strain E96) was over 160 µg/mL. The MIC ([3]; read-out: MIC µg/ml compound (i) alone, strain E110) was over 160 µg/mL, the MIC ([3]; read-out: MIC µg/ml compound (i) alone, strain E121) was over 161 µg/mL and the MIC ([3]; read-out: MIC µg/ml compound (i) alone, strain E124) was over 160 µg/mL. It also gave an MIC ([3]; read-out: MIC µg/ml compound (i) alone, strain JT4) of over 160 µg/mL, an MIC ([3]; read-out: MIC µg/ml compound (i) alone, strain JT9) of over 160 µg/mL and an MIC ([3]; read-out: MIC µg/ml compound (i) alone, strain JT39) of 160 µg/mL. For the same compound, the MIC ([3]; read-out: MIC µg/ml compound (i) alone, strain JT68) was over 160 µg/mL, the MIC ([3]; read-out: MIC µg/ml compound (i) alone, strain P9) was over 160 µg/mL and the MIC ([3]; read-out: MIC µg/ml compound (i) alone, strain P19) was over 160 µg/mL. The MIC ([3]; read-out: MIC µg/ml compound (i) alone, strain SA15) was over 160 µg/mL, the “MIC µg/ml compound (i) compound (iii) (µg/ml) 1, Geometric mean (± 95% confidence limits)” value ([3]; geometric mean of 11 E. coli strains, with compound (iii) 1 µg/ml) was 0.80 (0.16-4.1) µg/ml and the “MIC µg/ml compound (i) compound (iii) (µg/ml) 2, Geometric mean (± 95% confidence limits)” value ([3]; geometric mean of 11 E. coli strains, with compound (iii) 2 µg/ml) was 0.59 (0.15-2.2) µg/ml. For the same compound, the “MIC µg/ml compound (i) compound (iii) (µg/ml) 5, Geometric mean (± 95% confidence limits)” value ([3]; geometric mean of 11 E. coli strains, with compound (iii) 5 µg/ml) was 0.19 (0.07-0.53) µg/ml, the “MIC µg/ml compound (i) compound (iii) (µg/ml) 10, Geometric mean (± 95% confidence limits)” value ([3]; geometric mean of 11 E. coli strains, with compound (iii) 10 µg/ml) was 0.08 (0.02-0.30) µg/ml and the “MIC µg/ml compound (i) compound (iii) (µg/ml) 1” value ([3]; strain E96, with compound (iii) 1 µg/ml) was 0.62 µg/mL. For the same compound, the “MIC µg/ml compound (i) compound (iii) (µg/ml) 2” value ([3]; strain E96, with compound (iii) 2 µg/ml) was 0.62 µg/mL, the “MIC µg/ml compound (i) compound (iii) (µg/ml) 5” value ([3]; strain E96, with compound (iii) 5 µg/ml) was 0.31 µg/mL and the “MIC µg/ml compound (i) compound (iii) (µg/ml) 10” value ([3]; strain E96, with compound (iii) 10 µg/ml) was 0.31 µg/mL. The “MIC µg/ml compound (i) compound (iii) (µg/ml) 1” value ([3]; strain E110, with compound (iii) 1 µg/ml) was 0.16 µg/mL, the “MIC µg/ml compound (i) compound (iii) (µg/ml) 2” value ([3]; strain E110, with compound (iii) 2 µg/ml) was 0.16 µg/mL and the “MIC µg/ml compound (i) compound (iii) (µg/ml) 5” value ([3]; strain E110, with compound (iii) 5 µg/ml) was 0.08 µg/mL. The “MIC µg/ml compound (i) compound (iii) (µg/ml) 10” value ([3]; strain E110, with compound (iii) 10 µg/ml) was 0.02 µg/mL, the “MIC µg/ml compound (i) compound (iii) (µg/ml) 1” value ([3]; strain E121, with compound (iii) 1 µg/ml) was 0.62 µg/mL and the “MIC µg/ml compound (i) compound (iii) (µg/ml) 2” value ([3]; strain E121, with compound (iii) 2 µg/ml) was 0.31 µg/mL. For the same compound, the “MIC µg/ml compound (i) compound (iii) (µg/ml) 5” value ([3]; strain E121, with compound (iii) 5 µg/ml) was 0.16 µg/mL.
